US12033725B2, “Antimicrobial peptides and related methods” (GEORGE MASON UNIVERSITY, priority 2021, dated 2024)
Converted amounts (≈) assume the structure as drawn. “Also recorded” adds a separate entry of the source. Where two headings read alike, the source gives them in different places. Bridge positions count the residues as written; N and C are the ends. Ends that are not written are not given here. Peptide text beside a SMILES is read from it.

Columns and labels:
[1] = test system: S. aureus MRSA 33592; format: cell-based, Staphylococcus aureus; settings: low salt, 10 mM sodium phosphate, 3 h
Description: (§1) Staphylococcus aureus ATCC 33592 (MDR) and BAA-1718, E. coli ATCC 51659 (MDR) and 4,157 were purchased from the American Type Culture Collection (Manassas, VA, United States). All strains are reference strains. Bacteria were grown in Tryptic Soy Broth (BD 211825), except E. coli 4157 which was grown in Nutrient Broth (Difco 234000), overnight in a shaking incubator (37 C). Bacteria were aliquoted, mixed with glycerol (final concentration of 20% of glycerol) and frozen at −80 C and enumerated via serial dilution and plating prior to experimentation.
The antimicrobial activity of the PHNX peptides and LL-37 (AnaSpec 61302) against bacteria was determined as previously described (Barksdale et al., 2016, 2017). Briefly, 1×10^5 CFU per well of bacteria were incubated with different peptide concentrations (n=3) in a 50-ul solution of 10 mM sodium phosphate buffer (3 h, 37 C). Serial dilutions were then prepared in 1× Dulbecco's PBS and 8 ul of each dilution was spotted in triplicate on Tryptic Soy Agar plates, which were incubated (37 C, 24 h) and CFUs were counted (Barksdale et al., 2016, 2017). Bacterial survival at each peptide concentration was calculated based on the ratio of the number of colonies on each experimental plate and the average number of colonies observed for assay cultures lacking peptide. The peptide concentration required to kill 50% of the viable bacteria in the assay cultures (EC5O) was determined by plotting percent survival as a function of the log of peptide concentration (log μg/ml) and fitting the data using GraphPad Prism 6 (GraphPad Software Inc., San Diego, CA, United States). For the purpose of graphing, samples that had no peptide (0 μg/ml) are plotted at 1×10^−7 μg/ml peptide. EC50 values were determined by fitting the data from the antimicrobial assays to a standard sigmoidal dose-response curve. […] Wells containing only 10 mM sodium phosphate buffer were used as sterility control.

[2] = test system: E. coli 4157; assay: Antibacterial screening at 100 μg/ml; format: cell-based, Escherichia coli; settings: peptide 100 μg/ml
Description: as §1
(§2) The antibacterial screening test of the peptides (n=3) was first determined at a final peptide concentration of 100 μg/ml and a final bacterial concentration of 5×10^5 CFU/mL in Difco Mueller Hinton Broth (BD 275730) in a 96 well plate. The plate was incubated for 16-20 h at 37 C and then read on a spectrophotometer at OD600 nm. […] Wells containing medium only were used as sterility control, in the wells around the edge of the plates. LL-37 was used as a control in the first run of experiments against the MDR bacterial strains (Turner et al., 1998). […] The sequence of BF-CATH was derived from DBAASP database listed as cathelicidin-BF-34 with the following sequence: […]

[3] = test system: E. coli O157:H7 51659; assay: Antibacterial screening at 100 μg/ml; format: cell-based, Escherichia coli; settings: for bactericidal activity: 100 μg/ml, MDR E. coli
Description: as §1, §2

[4] = test system: E. coli 4157; format: cell-based, Escherichia coli
Description: as §1
(§3) The full range MIC activity testing of the peptides was then determined as previously reported using the Mueller Hinton Broth (BD 275730) in a 96 well plate following the CLSI protocol (Wiegand et al., 2008). Enumerated bacteria were diluted in MHB and 50 ul of 1×10^6 CFU/mL (5×10^4 CFU) was added to each well with 50 ul of a decreasing series of twofold peptide concentration. The plate was incubated for 16-20 h at 37 C and then read on a spectrophotometer at OD600 nm.

[5] = test system: S. aureus 33592; format: cell-based, Staphylococcus aureus; settings: MDR S. aureus (MRSA) 33592, Mueller Hinton Broth
Description: as §1, §3

[6] = test system: S. aureus BAA-1718; format: cell-based, Staphylococcus aureus; settings: antibiotic susceptible S. aureus BAA-1718, Mueller Hinton Broth
Description: as §1, §3

[7] = test system: human red blood cells
Description: To measure the hemolytic activity of peptides, 2% human red blood cells were added to various dilutions of peptide reconstituted in PBS in a sterile U-bottom polystyrene 96 well plate (Dean et al., 2011). The commercially obtained, deidentified human RBCs (BIOIVT Westbury, NY) were prepared as follows: 1 mL of K2EDTA whole blood from a healthy donor was centrifuged at 1,600 g for 10 min and plasma was discarded. The remaining RBCs were washed 4 times with 1 ml 1×PBS (HyClone), then the pallet after the last wash was resuspended with 750 ul of 1×PBS. 2% RBCs suspension was prepared by adding 200 ul of washed cells to 9.8 mL of 1×PBS. […] of 2% RBCs were added to each well (n=3) containing diluted peptides resulting in final peptide concentration of 100, 10, and 1 μg/ml. 2% RBCs with 1×PBS alone served as the negative control (No peptide), and 2% RBC in deionized water as the positive control, leading to full lysis. The plate was incubated for 1 h at 37 C and then centrifuged at 1,000 rpm for 2 min. The supernatant was transferred to a fresh regular 96 well plate and read at OD540 as previously reported (Dean et al., 2011). Student's t-test was used to determine whether points were statistically significant.

[8] = test system: E. coli O157:H7 51659; assay: EC50 antimicrobial activity assay (low salt, 10 mM sodium phosphate); format: cell-based, Escherichia coli; settings: MDR E. coli, 3 h
Description: as §1
The antimicrobial activity of the PHNX peptides and LL-37 (AnaSpec 61302) against bacteria was determined as previously described (Barksdale et al., 2016, 2017). […] Serial dilutions were then prepared in 1× Dulbecco's PBS and 8 ul of each dilution was spotted in triplicate on Tryptic Soy Agar plates, which were incubated (37 C, 24 h) and CFUs were counted (Barksdale et al., 2016, 2017). Bacterial survival at each peptide concentration was calculated based on the ratio of the number of colonies on each experimental plate and the average number of colonies observed for assay cultures lacking peptide. […] EC50 values were determined by fitting the data from the antimicrobial assays to a standard sigmoidal dose-response curve. […]

[9] = test system: MDR E. coli 51659; format: cell-based, Escherichia coli; settings: MDR E. coli O157:H7 51659, Mueller Hinton Broth (high salt)
Description: as §1, §3

[10] = test system: S. aureus MRSA 33592; assay: Antibacterial screening at 100 μg/ml; format: cell-based, Staphylococcus aureus; settings: MDR S. aureus
Description: as §1, §2

[11] = test system: E. coli ATCC 25922; settings: E. coli ATCC 25922 (Wang et al., 2008); cited from earlier work
[12] = peptide 1 μg/ml, 2% human RBCs (EDTA), 1 h

## FIGAIASYLKKFR [PHNX-6]
[1]
  EC50: 7.95 µg/mL

## CC[C@H](C)[C@H](NC(=O)[C@H](CCCCN)NC(=O)[C@H](CC(=O)O)NC(=O)[C@H](CC(C)C)NC(=O)[C@H](CC(C)C)NC(=O)[C@H](CCC(N)=O)NC(=O)CNC(=O)[C@H](C)NC(=O)[C@H](CC(C)C)NC(=O)[C@H](CC(N)=O)NC(=O)[C@H](CCCCN)NC(=O)[C@H](C)NC(=O)[C@H](C)NC(=O)[C@H](CC(N)=O)NC(=O)[C@H](CCCCN)NC(=O)[C@@H](NC(=O)[C@@H](NC(=O)[C@H](CC(=O)O)NC(=O)[C@H](CCSC)NC(=O)[C@H](CC(C)C)NC(=O)CN)[C@@H](C)O)C(C)C)C(=O)N[C@@H](CCCCN)C(=O)N[C@H]1CSSC[C@@H](C(=O)O)NC(=O)CNC(=O)[C@H]([C@@H](C)O)NC(=O)[C@H]([C@@H](C)CC)NC(=O)[C@H](CCCCN)NC1=O [PHNX-8] (H-GLMDTVKNAAKNLAGQLLDKIKCKITGC-OH; disulfide 23-28 (inferred); N-terminus and C-terminus assumed)
[2]; E. coli 4157
  growth inhibition in the screen (in words): showed activity
[2]; antibiotic susceptible E. coli 4157
  bacterial survival: ~0%
[3]; peptide 100 μg/ml, MDR E. coli 51659
  growth inhibition in the screen (in words): showed activity
[3]; peptide 100 μg/ml, antibiotic resistant E. coli O157:H7 51659
  bacterial survival: ~0%
[4]; 4157
  MIC: 32 µg/mL (≈ 10.9 µM)
[5]
  MIC: without any activity; also recorded: no activity
[6]
  MIC: without any activity; also recorded: no activity
[7]
  hemolysis: higher hemolytic activity

## FGKLLKLGKGLGG [PHNX-2]
[8]
  EC50: no activity
[1]
  EC50: no activity

## CC[C@H](C)[C@H](NC(=O)[C@H](CCCCN)NC(=O)[C@H](CCC(=O)O)NC(=O)[C@H](CCCCN)NC(=O)[C@H](CO)NC(=O)[C@H](CCCCN)NC(=O)[C@H](CCCNC(=N)N)NC(=O)[C@H](Cc1ccccc1)NC(=O)[C@H](Cc1ccccc1)NC(=O)[C@H](CC(=O)O)NC(=O)CNC(=O)[C@H](CC(C)C)NC(=O)[C@@H](N)CC(C)C)C(=O)NCC(=O)N[C@@H](CCCCN)C(=O)N[C@@H](CCC(=O)O)C(=O)N[C@@H](Cc1ccccc1)C(=O)N[C@@H](CCCCN)C(=O)N[C@@H](CCCNC(=N)N)C(=O)N[C@H](C(=O)N[C@H](C(=O)N[C@@H](CCC(N)=O)C(=O)N[C@@H](CCCNC(=N)N)C(=O)N[C@H](C(=O)N[C@@H](CCCCN)C(=O)N[C@@H](CC(=O)O)C(=O)N[C@@H](Cc1ccccc1)C(=O)N[C@@H](CC(C)C)C(=O)N[C@@H](CCCNC(=N)N)C(=O)N[C@@H](CC(N)=O)C(=O)N[C@@H](CC(C)C)C(=O)N[C@H](C(=O)N1CCC[C@H]1C(=O)N[C@@H](CCCNC(=N)N)C(=O)N[C@H](C(=O)N[C@@H](CCC(=O)O)C(=O)N[C@@H](CO)C(=O)O)[C@@H](C)O)C(C)C)[C@@H](C)CC)C(C)C)[C@@H](C)CC [LL-37, reference compound]
[7]; [12]
  hemolysis: negligible hemolysis
[7]; peptide 100 μg/ml, 2% human RBCs (EDTA), 1 h
  hemolysis: approximately 40%

## FLIKILKGGKGGK [PHNX-5]
[1]
  EC50: > 10 µg/mL
[7]
  hemolysis: higher hemolytic activity

## GVVDIIKGAGKKFAKGLAGKIANKK [PHNX-7]
[9]
  MIC: > 64 µg/mL
[1]
  EC50: 2.09 µg/mL
[7]
  hemolysis: higher hemolytic activity

## KRFKKFFRKLKKSVKKRAKEFFKKPRVIGVSIPF [BF-CATH, reference compound]
[3]
  bactericidal activity: 100%
[10]
  bactericidal activity: 100%
[4]; antibiotic susceptible E. coli 4157, Mueller Hinton Broth
  MIC: strong antimicrobial activity
[9]
  MIC: strong antimicrobial activity
[5]
  MIC: not very effective
[6]
  MIC: not very effective
[11]
  previously reported antimicrobial activity level: 2.3 µg/mL

## VRLIVAVRIWRR-NH2 (C-terminus assumed) [IDR-1018, reference compound]
[3]
  bactericidal activity: 100%
[10]
  bactericidal activity: 100%
[7]; [12]
  hemolysis: negligible hemolysis

## FGKLLKLGKGLKG [PHNX-3]
[8]
  EC50: no activity
[1]
  EC50: no activity

## FLLKLGLGKKKLL [PHNX-4]
[7]
  hemolysis: higher hemolytic activity
